{"source": "patent US4533554A", "about": "“Quinone derivatives and use” (Takeda Chemical Industries, Ltd., priority 1979, dated 1985)", "key": {"[1]": {"tested_on": "SRS-A (slow reacting substance of anaphylaxis) production and release", "test": "Inhibitory effect on SRS-A (slow reacting substance of anaphylaxis) production and release in sensitised guinea-pig lung fragments", "format": "cell-based", "settings": "guinea-pig lung fragments sensitised with egg albumin", "procedure": "The inhibitory effect on SRS-A production and release was examined by the method of Orange and Moore (J. Immunol., 116, 392-397, 1976). Quinone derivatives were added to guinea-pig lung fragments sensitised with egg albumin as the antigen, and the amount of SRS-A produced and released as a consequence was assayed by the method of Brocklehust (J. Physiol., 151, 416-435, 1960)."}, "[2]": {"tested_on": "mortal activity of arachidonic acid in mouse", "test": "Suppression of mortal activity of arachidonic acid in mouse", "format": "in vivo", "settings": "300 mg/kg oral, 1 hour before arachidonic acid 60 mg/kg i.v., male JCL:ICR mice, read-out: Number of survival mice/Total number of mice (converted)", "procedure": "Male mice (four weeks old, JCL:ICR) were used in this experimental. Quinone derivatives were suspended with arabin to administrate per OS. After one hour of the oral administration at a dose of 300 mg/kg of a quinone derivative, an aqueous solution of arachidonic acid (20 mg/ml, pH 8.8) was intravenously administrated at dose of 60 mg/kg of arachidonic acid from mouse tail vein. The suppressive effects were shown in Table 10 by the ratio of the number of survival mice to the total number of mice administrated the test compound."}, "[3]": {"tested_on": "SHR (spontaneously hypertensive rats)", "test": "Blood-pressure reducing action in SHR (spontaneously hypertensive rats)", "format": "in vivo, rat", "settings": "oral, L-methyldopa 40 mg/kg, test compound equimolar amount", "procedure": "The blood-pressure reducing action of the compounds obtained in the above-mentioned Examples was confirmed with the use of SHR (spontaneously hypertensive rats) in accordance with the method of Watson and Ludden (L. S. Watson & C. T. Ludden in \"New Antihypertensive Drugs\", A. Scriabin and C. S. Sweet, Ed., Spectrum Publications, New York, 1976, page 87). As a control compound, L-methyldopa was orally administered in a dose of 40 mg/kg, while an equimolar amount of a test compound was orally given, to examine the effect. Results are shown in Table 8, where the marks, (+++), (++), (+) and (±), indicate the blood-pressure reducing actions of 31 to 40 mmHg, 21 to 30 mmHg, 11 to 20 mmHg and not more than 10 mmHg, respectively."}}}
{"compound": "Sodium baikalein phosphate [BSP, reference compound]", "values": [{"measurement": "Inhibitory Effect on SRS-A Production (% inhibition of production and release)", "setting": "[1]; 10 μM", "result": "18.7 ± 6.6", "unit": "%"}, {"measurement": "Inhibitory Effect on SRS-A Production (% inhibition of production and release)", "setting": "[1]; 100 μM", "result": "50.8 ± 10.7", "unit": "%"}]}
{"compound": "COc1cc(CN2CCN(C(=O)CC/C(C)=C/CC/C(C)=C/CC/C(C)=C/CC3=C(C)C(=O)c4ccccc4C3=O)CC2)cc(OC)c1OC", "note": "[Ia-28]", "values": [{"measurement": "responders at 300 mg/kg", "setting": "[2]", "result": 100, "unit": "%"}]}
{"compound": "COC1=C(OC)C(=O)C(C/C=C(\\C)CC/C=C(\\C)CCC(=O)N2CCOCC2)=C(C)C1=O", "note": "[Ia-9]", "values": [{"measurement": "responders at 300 mg/kg", "setting": "[2]", "result": 40, "unit": "%"}]}
{"compound": "COC1=C(OC)C(=O)C(C/C=C(\\C)CC/C=C(\\C)CC/C=C(\\C)CCC(=O)O)=C(C)C1=O", "note": "[IIa-12]", "values": [{"measurement": "Blood-pressure reducing action", "setting": "[3]", "result": "++ (21 to 30 mmHg)"}, {"measurement": "inhibition at 1 µM", "setting": "[1]; Cavia porcellus", "result": "21.8 ± 8.5", "unit": "%"}]}
{"compound": "COC1=C(OC)C(=O)C(C/C=C(\\C)CC/C=C(\\C)CC/C=C(\\C)CCC(=O)N2CCN(Cc3ccc4c(c3)OCO4)CC2)=C(C)C1=O", "note": "[Ia-11]", "values": [{"measurement": "responders at 300 mg/kg", "setting": "[2]", "result": 80, "unit": "%"}, {"measurement": "inhibition at 1 µM", "setting": "[1]; Cavia porcellus", "result": "15 ± 5.6", "unit": "%"}]}
{"compound": "COC1=C(OC)C(=O)C(C/C=C(\\C)CCC(=O)N2CCN(C/C=C(\\C)CC/C=C(\\C)CCC=C(C)C)CC2)=C(C)C1=O", "note": "[Ia-3]", "values": [{"measurement": "responders at 300 mg/kg", "setting": "[2]", "result": 40, "unit": "%"}]}
{"compound": "CC1=C(C)C(=O)C(C/C=C(\\C)CC/C=C(\\C)CCC(=O)O)=C(C)C1=O", "note": "[IIa-7]", "values": [{"measurement": "inhibition at 10 µM", "setting": "[1]; Cavia porcellus, 10 μM", "result": "40.2 ± 7.3", "unit": "%"}]}
{"compound": "CC1=C(C)C(=O)C(C/C=C(\\C)CC/C=C(\\C)CC/C=C(\\C)CC/C=C(\\C)CCC(=O)O)=C(C)C1=O", "note": "[IIa-9]", "values": [{"measurement": "Blood-pressure reducing action", "setting": "[3]", "result": "++ (21 to 30 mmHg)"}]}
{"compound": "COC1=C(OC)C(=O)C(C/C=C(\\C)CC/C=C(\\C)CC/C=C(\\C)CC/C=C(\\C)CC/C=C(\\C)CC/C=C(\\C)CC/C=C(\\C)CCC(=O)O)=C(C)C1=O", "note": "[IIa-14]", "values": [{"measurement": "Blood-pressure reducing action", "setting": "[3]", "result": "++ (21 to 30 mmHg)"}]}
{"compound": "CC(C)=CCC/C(C)=C/CC/C(C)=C/COC(=O)CC/C(C)=C/CC/C(C)=C/CC1=C(C)C(=O)c2ccccc2C1=O", "note": "[IIa-21]", "values": [{"measurement": "Blood-pressure reducing action", "setting": "[3]", "result": "++ (21 to 30 mmHg)"}]}
{"compound": "CC(C)=CCC/C(C)=C/COC(=O)CC/C(C)=C/CC/C(C)=C/CC1=C(C)C(=O)c2ccccc2C1=O", "note": "[IIa-20]", "values": [{"measurement": "Blood-pressure reducing action", "setting": "[3]", "result": "++ (21 to 30 mmHg)"}]}
{"compound": "CC1=C(C/C=C(\\C)CC/C=C(\\C)CC/C=C(\\C)CCC(=O)O)C(=O)c2ccccc2C1=O", "note": "[IIa-4]", "values": [{"measurement": "Blood-pressure reducing action", "setting": "[3]", "result": "+++ (31 to 40 mmHg)"}, {"measurement": "inhibition at 1 µM", "setting": "[1]; Cavia porcellus", "result": "24.3 ± 4.2", "unit": "%"}]}
{"compound": "COC1=C(OC)C(=O)C(C/C=C(\\C)CC/C=C(\\C)CC/C=C(\\C)CC/C=C(\\C)CC/C=C(\\C)CC/C=C(\\C)CC/C=C(\\C)CC/C=C(\\C)CC/C=C(\\C)CC/C=C(\\C)CCC(=O)O)=C(C)C1=O", "note": "[IIa-15]", "values": [{"measurement": "Blood-pressure reducing action", "setting": "[3]", "result": "++ (21 to 30 mmHg)"}]}
{"compound": "COC1=C(OC)C(=O)C(C/C=C(\\C)CC/C=C(\\C)CCC(=O)OC/C=C(\\C)CCC=C(C)C)=C(C)C1=O", "note": "[IIa-19]", "values": [{"measurement": "Blood-pressure reducing action", "setting": "[3]", "result": "++ (21 to 30 mmHg)"}]}
{"compound": "COC1=C(OC)C(=O)C(C/C=C(\\C)CC/C=C(\\C)CCC(=O)O)=C(C)C1=O", "note": "[IIa-10]", "values": [{"measurement": "inhibition at 1 µM", "setting": "[1]; Cavia porcellus", "result": "35 ± 6.3", "unit": "%"}]}
{"compound": "COC1=C(OC)C(=O)C(C/C=C(\\C)CC/C=C(\\C)CCC(N)=O)=C(C)C1=O", "note": "[Ia-7]", "values": [{"measurement": "responders at 300 mg/kg", "setting": "[2]", "result": 40, "unit": "%"}]}
{"compound": "CC1=C(C/C=C(\\C)CC/C=C(\\C)CC/C=C(\\C)CC/C=C(\\C)CCC(=O)O)C(=O)c2ccccc2C1=O", "note": "[IIa-5]", "values": [{"measurement": "Blood-pressure reducing action", "setting": "[3]", "result": "+++ (31 to 40 mmHg)"}]}
{"compound": "COC1=C(OC)C(=O)C(C/C=C(\\C)CC/C=C(\\C)CCC(=O)N(C(=O)NC2CCCCC2)C2CCCCC2)=C(C)C1=O", "note": "[Ia-48]", "values": [{"measurement": "responders at 300 mg/kg", "setting": "[2]", "result": 40, "unit": "%"}]}
{"compound": "NC1=NN(c2cccc(C(F)(F)F)c2)CC1", "note": "[BW-755c, reference compound]", "values": [{"measurement": "inhibition at 10 µM", "setting": "[1]; Cavia porcellus, 10 μM", "result": "4.7 ± 3.7", "unit": "%"}, {"measurement": "inhibition at 100 µM", "setting": "[1]; Cavia porcellus, 100 μM", "result": "15.3 ± 4.3", "unit": "%"}]}
{"compound": "COC1=C(OC)C(=O)C(C/C=C(\\C)CC/C=C(\\C)CCC(=O)N2CCN(Cc3cc(OC)c(OC)c(OC)c3)CC2)=C(C)C1=O", "note": "[Ia-6]", "values": [{"measurement": "responders at 300 mg/kg", "setting": "[2]", "result": 40, "unit": "%"}, {"measurement": "inhibition at 1 µM", "setting": "[1]; Cavia porcellus", "result": "26.8 ± 2.2", "unit": "%"}]}
{"compound": "COC1=C(OC)C(=O)C(C/C=C(\\C)CC/C=C(\\C)CCC(=O)OC/C=C(\\C)CC/C=C(\\C)CCC=C(C)C)=C(C)C1=O", "note": "[IIa-16]", "values": [{"measurement": "Blood-pressure reducing action", "setting": "[3]", "result": "++ (21 to 30 mmHg)"}]}
{"compound": "CC1=C(C/C=C(\\C)CC/C=C(\\C)CCC(=O)O)C(=O)c2ccccc2C1=O", "note": "[IIa-3]", "values": [{"measurement": "responders at 300 mg/kg", "setting": "[2]", "result": 40, "unit": "%"}, {"measurement": "Blood-pressure reducing action", "setting": "[3]", "result": "+++ (31 to 40 mmHg)"}, {"measurement": "inhibition at 10 µM", "setting": "[1]; Cavia porcellus, 10 μM", "result": "38.6 ± 4.3", "unit": "%"}]}
{"compound": "C[C@](N)(Cc1ccc(O)c(O)c1)C(=O)O", "note": "[L-Methyldopa, reference compound]", "values": [{"measurement": "Blood-pressure reducing action", "setting": "[3]", "result": "+++ (31 to 40 mmHg)"}]}
{"compound": "COC1=C(OC)C(=O)C(C/C=C(\\C)CC/C=C(\\C)CC/C=C(\\C)CC/C=C(\\C)CCC(=O)O)=C(C)C1=O", "note": "[IIa-13]", "values": [{"measurement": "Blood-pressure reducing action", "setting": "[3]", "result": "++ (21 to 30 mmHg)"}]}
